Tests used:
Test in all cases: radiometric filter-binding kinase assay, Kinase HotSpot
Settings in all cases: compound 0.5 µM; ATP 10 µM
ABL1 (human) = ABL1 (human) (UniProt P00519)
AKT3 (human) = AKT3 (human) (UniProt Q9Y243)
ALK (human) = ALK (human) (UniProt Q9UM73)
CAMK1G (human) = CAMK1G (human) (UniProt Q96NX5)
CDK3 CCNE1 (human) = CDK3 CCNE1 (human) (UniProt Q00526+P24864)
CDK5 CDK5R1 p25 (human) = CDK5 CDK5R1 p25 (human) (UniProt Q00535+Q15078)
CDK7 CCNH MNAT1 (human) = CDK7 CCNH MNAT1 (human) (UniProt P50613+P51948+P51946)
CDK9 CCNT1 (human) = CDK9 CCNT1 (human) (UniProt P50750+O60563)
CSF1R (human) = CSF1R (human) (UniProt P07333)
DAPK1 (human) = DAPK1 (human) (UniProt P53355)
EPHB3 (human) = EPHB3 (human) (UniProt P54753)
ERBB2 (human) = ERBB2 (human) (UniProt P04626)
GRK7 (human) = GRK7 (human) (UniProt Q8WTQ7)
HCK (human) = HCK (human) (UniProt P08631)
HIPK2 (human) = HIPK2 (human) (UniProt Q9H2X6)
IKBKB (human) = IKBKB (human) (UniProt O14920)
MAP3K3 (human) = MAP3K3 (human) (UniProt Q99759)
Sequence of MAP3K3 (human) (Q99759 whole entry, looked up): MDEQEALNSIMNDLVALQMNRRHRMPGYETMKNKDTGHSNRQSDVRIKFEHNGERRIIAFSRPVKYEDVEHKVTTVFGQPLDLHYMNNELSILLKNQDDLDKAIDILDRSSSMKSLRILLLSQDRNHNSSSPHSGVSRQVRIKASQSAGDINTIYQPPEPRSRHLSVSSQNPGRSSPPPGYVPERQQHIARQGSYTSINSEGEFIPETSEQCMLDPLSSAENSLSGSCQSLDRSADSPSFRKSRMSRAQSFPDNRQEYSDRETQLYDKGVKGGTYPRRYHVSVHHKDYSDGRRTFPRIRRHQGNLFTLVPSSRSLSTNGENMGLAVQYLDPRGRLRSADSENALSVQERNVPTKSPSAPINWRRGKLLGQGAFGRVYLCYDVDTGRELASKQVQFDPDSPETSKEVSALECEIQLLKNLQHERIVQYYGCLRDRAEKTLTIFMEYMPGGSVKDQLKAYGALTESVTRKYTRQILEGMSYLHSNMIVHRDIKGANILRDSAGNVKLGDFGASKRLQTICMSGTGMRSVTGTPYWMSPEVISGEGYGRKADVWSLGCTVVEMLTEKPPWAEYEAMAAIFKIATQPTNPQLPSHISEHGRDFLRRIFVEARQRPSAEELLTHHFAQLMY

MAP3K5 (human) = MAP3K5 (human) (UniProt Q99683)
Sequence of MAP3K5 (human) (Q99683 whole entry, looked up): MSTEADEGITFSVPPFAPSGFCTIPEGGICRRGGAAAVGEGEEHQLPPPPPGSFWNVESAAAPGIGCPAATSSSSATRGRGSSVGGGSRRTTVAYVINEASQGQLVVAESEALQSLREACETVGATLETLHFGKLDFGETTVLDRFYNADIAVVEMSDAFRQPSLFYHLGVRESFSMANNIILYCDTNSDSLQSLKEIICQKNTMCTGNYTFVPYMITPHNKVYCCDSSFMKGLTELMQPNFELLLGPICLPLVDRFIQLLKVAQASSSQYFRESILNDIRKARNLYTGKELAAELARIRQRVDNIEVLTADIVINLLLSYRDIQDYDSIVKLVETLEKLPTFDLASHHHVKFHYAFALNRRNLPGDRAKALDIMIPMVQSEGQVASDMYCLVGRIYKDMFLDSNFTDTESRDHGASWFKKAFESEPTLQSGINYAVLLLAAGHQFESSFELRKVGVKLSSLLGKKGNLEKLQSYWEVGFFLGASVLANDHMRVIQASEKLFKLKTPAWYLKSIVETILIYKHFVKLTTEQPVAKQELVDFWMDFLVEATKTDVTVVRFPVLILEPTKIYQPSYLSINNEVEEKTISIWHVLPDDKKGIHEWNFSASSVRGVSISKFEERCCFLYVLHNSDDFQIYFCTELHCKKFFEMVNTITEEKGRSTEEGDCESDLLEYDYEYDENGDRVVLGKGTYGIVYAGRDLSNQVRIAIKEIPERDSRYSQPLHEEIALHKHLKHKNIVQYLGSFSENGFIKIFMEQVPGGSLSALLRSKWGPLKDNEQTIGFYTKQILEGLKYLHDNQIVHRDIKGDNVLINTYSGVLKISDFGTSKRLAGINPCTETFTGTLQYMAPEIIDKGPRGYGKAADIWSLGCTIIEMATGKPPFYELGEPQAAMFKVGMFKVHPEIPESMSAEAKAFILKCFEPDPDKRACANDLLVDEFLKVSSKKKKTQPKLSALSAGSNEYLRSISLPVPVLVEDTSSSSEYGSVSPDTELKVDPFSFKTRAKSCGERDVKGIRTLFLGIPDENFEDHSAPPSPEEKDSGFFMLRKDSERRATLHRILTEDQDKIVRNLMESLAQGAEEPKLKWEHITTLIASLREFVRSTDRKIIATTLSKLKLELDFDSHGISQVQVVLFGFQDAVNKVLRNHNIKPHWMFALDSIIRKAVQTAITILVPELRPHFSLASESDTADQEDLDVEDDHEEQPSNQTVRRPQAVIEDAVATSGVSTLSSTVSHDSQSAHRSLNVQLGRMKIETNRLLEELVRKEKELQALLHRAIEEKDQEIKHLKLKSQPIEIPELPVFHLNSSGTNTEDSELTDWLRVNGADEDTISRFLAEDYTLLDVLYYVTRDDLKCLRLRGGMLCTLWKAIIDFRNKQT

MAP4K2 (human) = MAP4K2 (human) (UniProt Q12851)
MAPK13 (human) = MAPK13 (human) (UniProt O15264)
MARK1 (human) = MARK1 (human) (UniProt Q9P0L2)
MERTK (human) = MERTK (human) (UniProt Q12866)
MUSK (human) = MUSK (human) (UniProt O15146)
MYLK (human) = MYLK (human) (UniProt Q15746)
Sequence of MYLK (human) (Q15746 whole entry, looked up): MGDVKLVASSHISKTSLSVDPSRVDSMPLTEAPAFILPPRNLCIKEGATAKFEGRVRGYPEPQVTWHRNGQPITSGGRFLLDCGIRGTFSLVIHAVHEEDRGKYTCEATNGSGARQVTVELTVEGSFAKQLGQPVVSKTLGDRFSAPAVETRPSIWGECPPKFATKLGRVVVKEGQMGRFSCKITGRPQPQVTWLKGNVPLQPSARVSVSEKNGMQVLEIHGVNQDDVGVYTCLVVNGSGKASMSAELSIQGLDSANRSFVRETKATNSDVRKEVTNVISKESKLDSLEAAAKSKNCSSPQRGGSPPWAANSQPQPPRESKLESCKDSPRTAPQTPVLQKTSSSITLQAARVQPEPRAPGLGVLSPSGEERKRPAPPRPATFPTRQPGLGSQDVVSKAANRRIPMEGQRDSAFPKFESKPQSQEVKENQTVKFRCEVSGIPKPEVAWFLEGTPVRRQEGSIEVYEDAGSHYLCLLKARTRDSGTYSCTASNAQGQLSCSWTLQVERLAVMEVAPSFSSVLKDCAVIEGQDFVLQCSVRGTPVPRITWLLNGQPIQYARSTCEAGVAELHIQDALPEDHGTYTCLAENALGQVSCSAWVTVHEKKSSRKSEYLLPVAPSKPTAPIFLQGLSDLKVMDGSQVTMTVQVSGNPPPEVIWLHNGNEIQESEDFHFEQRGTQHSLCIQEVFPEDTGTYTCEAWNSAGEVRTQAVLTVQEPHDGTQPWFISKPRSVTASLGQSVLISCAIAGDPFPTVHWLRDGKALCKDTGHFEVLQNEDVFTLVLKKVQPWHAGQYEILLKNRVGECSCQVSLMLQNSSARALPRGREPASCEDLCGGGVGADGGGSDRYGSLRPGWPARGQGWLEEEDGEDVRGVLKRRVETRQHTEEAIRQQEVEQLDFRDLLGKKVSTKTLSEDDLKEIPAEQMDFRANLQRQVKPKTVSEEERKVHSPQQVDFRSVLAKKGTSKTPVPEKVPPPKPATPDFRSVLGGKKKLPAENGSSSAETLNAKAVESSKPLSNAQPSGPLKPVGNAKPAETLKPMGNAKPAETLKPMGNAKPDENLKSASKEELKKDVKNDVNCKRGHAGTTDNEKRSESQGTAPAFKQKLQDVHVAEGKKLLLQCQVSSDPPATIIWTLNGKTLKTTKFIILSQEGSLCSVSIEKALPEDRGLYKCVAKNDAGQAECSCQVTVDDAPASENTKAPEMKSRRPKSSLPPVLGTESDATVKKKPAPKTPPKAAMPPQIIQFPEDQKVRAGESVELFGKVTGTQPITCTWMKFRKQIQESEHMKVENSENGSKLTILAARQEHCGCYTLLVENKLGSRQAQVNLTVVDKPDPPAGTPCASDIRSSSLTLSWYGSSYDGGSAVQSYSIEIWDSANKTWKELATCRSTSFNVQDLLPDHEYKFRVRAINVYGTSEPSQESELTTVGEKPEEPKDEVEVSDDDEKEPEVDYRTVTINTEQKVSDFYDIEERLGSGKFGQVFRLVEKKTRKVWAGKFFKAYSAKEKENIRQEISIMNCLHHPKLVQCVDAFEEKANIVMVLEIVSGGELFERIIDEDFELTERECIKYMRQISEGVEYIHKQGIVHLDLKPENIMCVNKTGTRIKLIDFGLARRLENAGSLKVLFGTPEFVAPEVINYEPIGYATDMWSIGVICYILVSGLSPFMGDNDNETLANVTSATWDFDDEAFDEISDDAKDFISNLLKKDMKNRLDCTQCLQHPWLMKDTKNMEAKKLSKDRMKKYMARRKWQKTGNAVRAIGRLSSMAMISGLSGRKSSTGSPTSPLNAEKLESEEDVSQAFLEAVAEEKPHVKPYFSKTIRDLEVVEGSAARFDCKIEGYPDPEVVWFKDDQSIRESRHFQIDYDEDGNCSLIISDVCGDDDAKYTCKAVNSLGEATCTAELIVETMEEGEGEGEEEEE

NEK3 (human) = NEK3 (human) (UniProt P51956)
NTRK3 (human) = NTRK3 (human) (UniProt Q16288)
OXSR1 (human) = OXSR1 (human) (UniProt O95747)
PAK4 (human) = PAK4 (human) (UniProt O96013)
PRKCA (human) = PRKCA (human) (UniProt P17252)
PRKCD (human) = PRKCD (human) (UniProt Q05655)
PRKD2 (human) = PRKD2 (human) (UniProt Q9BZL6)
RIPK2 (human) = RIPK2 (human) (UniProt O43353)
RPS6KA6 KD1 KD2 (human) = RPS6KA6 KD1 KD2 (human) (UniProt Q9UK32)
Sequence of RPS6KA6 KD1 KD2 (human) (Q9UK32 whole entry, looked up): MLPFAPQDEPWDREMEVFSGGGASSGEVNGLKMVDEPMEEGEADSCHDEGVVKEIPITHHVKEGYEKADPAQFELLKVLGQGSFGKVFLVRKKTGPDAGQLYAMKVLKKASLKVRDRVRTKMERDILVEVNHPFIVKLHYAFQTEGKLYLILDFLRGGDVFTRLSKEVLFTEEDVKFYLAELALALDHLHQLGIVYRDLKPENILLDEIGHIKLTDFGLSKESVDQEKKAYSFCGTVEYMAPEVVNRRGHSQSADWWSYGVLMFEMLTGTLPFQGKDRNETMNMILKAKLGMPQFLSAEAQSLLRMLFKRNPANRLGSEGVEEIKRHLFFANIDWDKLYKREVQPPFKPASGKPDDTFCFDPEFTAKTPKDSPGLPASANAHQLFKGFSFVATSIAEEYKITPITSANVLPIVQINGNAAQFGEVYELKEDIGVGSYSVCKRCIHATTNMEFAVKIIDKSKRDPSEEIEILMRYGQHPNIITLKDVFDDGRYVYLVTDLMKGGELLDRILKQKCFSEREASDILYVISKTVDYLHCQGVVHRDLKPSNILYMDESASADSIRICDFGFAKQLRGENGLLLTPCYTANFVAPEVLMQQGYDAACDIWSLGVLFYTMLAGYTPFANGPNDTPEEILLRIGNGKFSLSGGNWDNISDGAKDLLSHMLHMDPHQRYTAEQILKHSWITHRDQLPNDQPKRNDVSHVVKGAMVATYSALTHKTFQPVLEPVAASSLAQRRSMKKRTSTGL

RPS6KB1 (human) = RPS6KB1 (human) (UniProt P23443)
[1] = tested on: SGK1 (human), O00141 [S422D]
SLK (human) = SLK (human) (UniProt Q9H2G2)
SRC (human) = SRC (human) (UniProt P12931)
STK24 (human) = STK24 (human) (UniProt Q9Y6E0)
TTK (human) = TTK (human) (UniProt P33981)
VRK1 (human) = VRK1 (human) (UniProt Q99986)
Sequence of VRK1 (human) (Q99986 whole entry, looked up): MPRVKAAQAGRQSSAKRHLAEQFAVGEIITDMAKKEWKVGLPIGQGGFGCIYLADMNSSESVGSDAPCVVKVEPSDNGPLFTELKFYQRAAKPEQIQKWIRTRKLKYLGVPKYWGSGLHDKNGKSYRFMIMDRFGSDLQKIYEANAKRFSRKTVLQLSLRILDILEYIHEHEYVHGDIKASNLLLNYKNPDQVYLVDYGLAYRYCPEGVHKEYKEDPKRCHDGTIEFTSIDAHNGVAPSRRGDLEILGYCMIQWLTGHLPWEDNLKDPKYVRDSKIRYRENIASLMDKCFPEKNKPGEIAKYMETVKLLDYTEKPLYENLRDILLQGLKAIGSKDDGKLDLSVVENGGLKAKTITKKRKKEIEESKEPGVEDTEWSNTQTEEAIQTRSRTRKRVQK

EPHA8 (human) = EPHA8 (human) (UniProt P29322)

SMILES | residual activity (ABL1 (human)) [%] | residual activity (AKT3 (human)) [%] | residual activity (ALK (human)) [%] | residual activity (CAMK1G (human)) [%] | residual activity (CDK3 CCNE1 (human)) [%] | residual activity (CDK7 CCNH MNAT1 (human)) [%] | residual activity (CDK9 CCNT1 (human)) [%] | residual activity (CSF1R (human)) [%] | residual activity (DAPK1 (human)) [%] | residual activity (ERBB2 (human)) [%] | residual activity (HCK (human)) [%] | residual activity (HIPK2 (human)) [%] | residual activity (IKBKB (human)) [%] | residual activity (MAP3K3 (human)) [%] | residual activity (MAP3K5 (human)) [%] | residual activity (MAP4K2 (human)) [%] | residual activity (MAPK13 (human)) [%] | residual activity (MARK1 (human)) [%] | residual activity (MERTK (human)) [%] | residual activity (MUSK (human)) [%] | further results
O=C(c1ccccc1)c1ccc(N2CCOCC2)cc1O | 102 | 105 | 102 | 96.1 | 105 | 106 | 97.9 | 99.7 | 92.5 | 94.8 | 114 | 105 | 105 | 97.8 | 97.8 | 116 | 106 | 97.6 | 94.5 | 101 | residual activity (CDK5 CDK5R1 p25 (human)): 98.8%; residual activity (EPHB3 (human)): 92.2%; residual activity (GRK7 (human)): 99.6%; residual activity (MYLK (human)): 91.8%; residual activity (NEK3 (human)): 95.6%; residual activity (NTRK3 (human)): 93.7%; residual activity (OXSR1 (human)): 110%; residual activity (PAK4 (human)): 104%; residual activity (PRKCA (human)): 84.2%; residual activity (PRKCD (human)): 98.8%; residual activity (PRKD2 (human)): 99.1%; residual activity (RIPK2 (human)): 95%; residual activity (RPS6KA6 KD1 KD2 (human)): 101%; residual activity (RPS6KB1 (human)): 95.3%; residual activity [1]: 101%; residual activity (SLK (human)): 106%; residual activity (SRC (human)): 97.8%; residual activity (STK24 (human)): 89%; residual activity (TTK (human)): 104%; residual activity (VRK1 (human)): 89.7%
O=S(=O)(NCCNC/C=C/c1ccc(Br)cc1)c1cccc2cnccc12 | 101 | 69 | 101 | 99.1 | 77.3 | 82.8 | 87.8 | 97.7 | 81.5 | 119 | 99.4 | 99.2 | 89.5 | 85.4 | 93.2 | 51.1 | 101 | 91.2 | 79.8 | 80.7 | residual activity (CDK5 CDK5R1 p25 (human)): 113%; residual activity (EPHA8 (human)): 118%; residual activity (EPHB3 (human)): 92.5%; residual activity (MYLK (human)): 90.8%; residual activity (NEK3 (human)): 94.4%; residual activity (NTRK3 (human)): 79.6%; residual activity (OXSR1 (human)): 95.9%; residual activity (PAK4 (human)): 98.9%; residual activity (PRKCA (human)): 85.7%; residual activity (PRKCD (human)): 38.1%; residual activity (PRKD2 (human)): 75.9%; residual activity (RIPK2 (human)): 77.8%; residual activity (RPS6KA6 KD1 KD2 (human)): 71.8%; residual activity (RPS6KB1 (human)): 25.6%; residual activity [1]: 93.2%; residual activity (SLK (human)): 93%; residual activity (SRC (human)): 90.1%; residual activity (STK24 (human)): 72%; residual activity (TTK (human)): 99.7%; residual activity (VRK1 (human)): 80.1%
CCCCc1c(-c2ccc(O)cc2)[nH]c2nccnc12 | 79 | 95.8 | 85 | 104 | 76.8 | 88.2 | 45.9 | 38.4 | 85.3 | 97.7 | 91.1 | 88.5 | 103 | 127 | 99.3 | 28.2 | 101 | 91.9 | 94.1 | 82 | residual activity (EPHA8 (human)): 97.4%; residual activity (GRK7 (human)): 82.4%; residual activity (MYLK (human)): 101%; residual activity (NEK3 (human)): 103%; residual activity (NTRK3 (human)): 76.1%; residual activity (OXSR1 (human)): 95.5%; residual activity (PAK4 (human)): 108%; residual activity (PRKCA (human)): 83.7%; residual activity (PRKCD (human)): 102%; residual activity (PRKD2 (human)): 95.3%; residual activity (RIPK2 (human)): 58.6%; residual activity (RPS6KA6 KD1 KD2 (human)): 72.7%; residual activity (RPS6KB1 (human)): 105%; residual activity [1]: 88.1%; residual activity (SLK (human)): 77.3%; residual activity (SRC (human)): 65.2%; residual activity (STK24 (human)): 83.6%; residual activity (TTK (human)): 91.6%; residual activity (VRK1 (human)): 87.9%
